Numbers after ± are expanded uncertainties.

A short description of the data set: molar enthalpy of vaporization or sublimation. To be noted: 298.15 K; Crystal; Static calorimetry.

In the case of `CC(=O)c1cccc(C#N)c1` [3-acetylbenzonitrile], the molar enthalpy was 22.6 ± 0.359 kcal/mol. Consider `N#CCC(=O)c1ccccc1` [3-oxo-3-phenylpropanenitrile], for which the molar enthalpy was 23.5 ± 0.502 kcal/mol.

The values above are taken from the NIST ThermoML archive (doi:10.1016/j.jct.2015.08.008).
